Assay results reported in US9375519B2, “Bioerodable poly(etheresteramides) and medical article uses” (SurModics, Inc., priority 2012, dated 2016).
“Also recorded” adds a separate entry of the source. Where a name gives a salt, the structure may show the parent alone.

Assay: Analysis of monomer degradation in deuterated water by NMR (free phenylalanine)
Format: physicochemical
Conditions: deuterated water at pH 4, 7 or 11, room temperature
Experimental: Monomers of formula II were evaluated for degradation in water at basic, neutral, and acidic pH conditions.
NMR indicated an increasing presence of free phenylalanine, a degradation byproduct, in solution over time (FIG. 1). […] This is consistent with hydrolysis of the ester bond in the Phe-TEG monomer.
Monomers were placed in deuterated water (adjusted to pH 4, 7, or 11 with DCl or NaOD) in an NMR tube and incubated at room temperature. NMR was used to detect the presence of free phenylalanine, a degradation byproduct, in the aqueous phase (see FIG. 1).

In the case of `NC(Cc1ccccc1)C(=O)OCCOCCOCCOCCOC(=O)C(N)Cc1ccccc1` (stereo not shown) [Phe-TEG, di-p-toluenesulfonic salt of bis-(phenylalanine)-tetraethylene glycol diester], the “degradation of monomer in water (free phenylalanine in solution over time by NMR)” value is reported as “showed evidence of degradation; also recorded: larger under basic conditions than neutral or acidic”.
